# Data taken from patent US20110190269A1, “GAMMA SECRETASE MODULATORS” (priority 2010, published 2011).
# Test system: γ-secretase
# Test: Cellular γ-secretase assay (inhibition of Aβ42 secretion)
# Type: cell-based
# Details: human neuroglioma H4 cells overexpressing human APP, 22 hrs incubation
# Summary of the method: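 H4 neuroglioma cells overexpressing human APP got a ten-point compound dilution (0.4% DMSO final) for 22 h at 37 °C. Secreted Aβ42 in the supernatant was measured by electrochemiluminescence sandwich immunoassay (capture biotinylated 6E10, detection ruthenylated BAP15). IC50 came from a nonlinear regression fit.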
row,EC50 [nM],Structure (SMILES)
1,1340,"COc1cc(Nc2nc3cc(C(F)(F)F)ccn3n2)ccc1-n1cnc(C)c1 [Example 47, [3-Methoxy-4-(4-methyl-imidazol-1-yl)-phenyl]-(7-trifluoromethyl-[1,2,4]triazolo[1,5-a]pyridin-2-yl)-amine]"
2,10,"COc1cc(Nc2nc3c(-c4ccc(F)c(F)c4)cc(C)cn3n2)ccc1-n1cnc(C)c1 [Example 63, [8-(3,4-Difluoro-phenyl)-6-methyl-[1,2,4]triazolo[1,5-a]pyridin-2-yl]-[3-methoxy-4-(4-methyl-imidazol-1-yl)-phenyl]-amine]"
3,107,"COc1cc(Nc2nc3nc(C(F)(F)F)cc(-c4ccc(Cl)cc4)n3n2)ccc1-n1cnc(C)c1 [Example 20, [7-(4-Chloro-phenyl)-5-trifluoromethyl-[1,2,4]triazolo[1,5-a]pyrimidin-2-yl]-[3-methoxy-4-(4-methyl-imidazol-1-yl)-phenyl]-amine acetate]"
4,16,"COc1cc(Nc2nc3c(-c4ccc(F)c(Cl)c4)cccn3n2)ccc1-n1cnc(C)c1 [Example 130, 8-(3-chloro-4-fluorophenyl)-N-(3-methoxy-4-(4-methyl-1H-imidazol-1-yl)phenyl)-[1,2,4]triazolo[1,5-a]pyridin-2-amine]"
5,120,"COc1cc(Nc2nc3cccc(-c4ccccc4)n3n2)ccc1-n1cnc(C)c1 [Example 6, [3-Methoxy-4-(4-methyl-imidazol-1-yl)-phenyl]-(5-phenyl-[1,2,4]triazolo[1,5-a]pyridin-2-yl)-amine]"
6,100,"COc1cc(Nc2nc3cncc(-c4ccccc4)n3n2)ccc1-n1cnc(C)c1 [Example 13, [3-Methoxy-4-(4-methyl-imidazol-1-yl)-phenyl]-(5-phenyl-[1,2,4]triazolo[1,5-a]pyrazin-2-yl)-amine]"

# The next lines start with the compound.
row,Structure (SMILES),EC50 [nM]
1,"Cc1cn(-c2ccc(Nc3nc4c(-c5ccc(F)cc5Cl)cccn4n3)cc2F)cn1 [Example 110, 8-(2-chloro-4-fluorophenyl)-N-(3-fluoro-4-(4-methyl-1H-imidazol-1-yl)phenyl)-[1,2,4]triazolo[1,5-a]pyridin-2-amine]",29
2,"COc1cc(Nc2nc3c(-c4ccc5ncn(C)c5c4)cc(C)cn3n2)ccc1-n1cnc(C)c1 [Example 88, N-(3-Methoxy-4-(4-methyl-1H-imidazol-1-yl)phenyl)-6-methyl-8-(1-methyl-1H-benzo[d]imidazol-6-yl)-[1,2,4]triazolo[1,5-a]pyridin-2-amine]",188
3,"COc1cc(Nc2nc3c(-c4ccc5nc(C)oc5c4)cc(C)cn3n2)ccc1-n1cnc(C)c1 [Example 87, N-(3-Methoxy-4-(4-methyl-1H-imidazol-1-yl)phenyl)-6-methyl-8-(2-methylbenzo[d]oxazol-6-yl)-[1,2,4]triazolo[1,5-a]pyridin-2-amine]",44
4,"COc1cc(Nc2nc3c(-c4ccc(CC#N)cc4)cc(C)cn3n2)ccc1-n1cnc(C)c1 [Example 83, 2-(4-(2-(3-Methoxy-4-(4-methyl-1H-imidazol-1-yl)phenylamino)-6-methyl-[1,2,4]triazolo[1,5-a]pyridin-8-yl)phenyl)acetonitrile]",408
5,"COc1cc(Nc2nc3c(-c4ccc(F)c(F)c4)cccn3n2)ccc1-c1ccnc(C)c1 [Example 128, 8-(3,4-Difluorophenyl)-N-(3-methoxy-4-(2-methylpyridin-4-yl)phenyl)-[1,2,4]triazolo[1,5-a]pyridin-2-amine]",30
6,"COc1cc(Nc2nc3c(-c4ccc(F)c(F)c4F)cc(C4CC4)cn3n2)ccc1-n1cnc(C)c1 [Example 120, [6-Cyclopropyl-8-(2,3,4-trifluoro-phenyl)-[1,2,4]triazolo[1,5-a]pyridin-2-yl]-[3-methoxy-4-(4-methyl-imidazol-1-yl)-phenyl]-amine]",96
7,"Cc1cn(-c2ccc(Nc3nc4c(-c5ccc(F)cc5Cl)cccn4n3)cc2C#N)cn1 [Example 113, 5-(8-(2-chloro-4-fluorophenyl)-[1,2,4]triazolo[1,5-a]pyridin-2-ylamino)-2-(4-methyl-1H-imidazol-1-yl)benzonitrile]",81
